In ChEMBL document CHEMBL5715954, “Silencing c-Myc translation as a therapeutic strategy through targeting PI3Kδ and CK1ε in hematological malignancies” (Blood, 2017):

What was measured:
Parameters in all cases: scale not given: the % may be the effect or the level left
[1] = target: CDK3/Cyclin E (Homo sapiens) (UniProt P24864+Q00526); test: Inhibition of human CDK3/cyclin E assessed as enzyme activity at 1 uM using RB Protein as substrate preincubated for 20 mins followed by [gamma-33P]-ATP addition and measured after 120 mins by radiometric Hot-SpotSM Kinase assay relative to control; assay type: protein-complex assay
[2] = target: G protein-coupled receptor kinase 4 (Homo sapiens) (UniProt P32298); test: Inhibition of human GRK4 assessed as enzyme activity at 1 uM using casein as substrate preincubated for 20 mins followed by [gamma-33P]-ATP addition and measured after 120 mins by radiometric Hot-SpotSM Kinase assay relative to control
[3] = target: Serine/threonine-protein kinase VRK2 (Homo sapiens) (UniProt Q86Y07); test: Inhibition of human VRK2 assessed as enzyme activity at 1 uM using casein as substrate preincubated for 20 mins followed by [gamma-33P]-ATP addition and measured after 120 mins by radiometric Hot-SpotSM Kinase assay relative to control
[4] = target: T1, Aurora kinase C (Homo sapiens) (UniProt Q9UQB9); test: Inhibition of human Aurora C assessed as enzyme activity at 1 uM using H-LRRASLG as substrate preincubated for 20 mins followed by [gamma-33P]-ATP addition and measured after 120 mins by radiometric Hot-SpotSM Kinase assay relative to control
T1 sequence (whole entry): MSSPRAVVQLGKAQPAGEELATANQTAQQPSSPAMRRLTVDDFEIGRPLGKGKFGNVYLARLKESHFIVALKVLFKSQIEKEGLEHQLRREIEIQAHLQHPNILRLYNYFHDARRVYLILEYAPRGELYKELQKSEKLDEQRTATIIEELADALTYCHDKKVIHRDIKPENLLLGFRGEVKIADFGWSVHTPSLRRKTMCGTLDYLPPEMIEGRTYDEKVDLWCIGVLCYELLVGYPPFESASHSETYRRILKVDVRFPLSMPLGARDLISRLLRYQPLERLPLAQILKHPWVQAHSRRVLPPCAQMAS

[5] = target: Tau-tubulin kinase 2 (Homo sapiens) (UniProt Q6IQ55); test: Inhibition of human TTBK2 assessed as enzyme activity at 1 uM using myelin basic protein as substrate preincubated for 20 mins followed by [gamma-33P]-ATP addition and measured after 120 mins by radiometric Hot-SpotSM Kinase assay relative to control
[6] = target: Cyclin-dependent kinase 1/cyclin B1 (Homo sapiens) (UniProt P06493+P14635); test: Inhibition of human CDK1/cyclin B assessed as enzyme activity at 1 uM using RB Protein as substrate preincubated for 20 mins followed by [gamma-33P]-ATP addition and measured after 120 mins by radiometric Hot-SpotSM Kinase assay relative to control; assay type: protein-complex assay
[7] = target: Serine/threonine-protein kinase 32C (Homo sapiens) (UniProt Q86UX6); test: Inhibition of human STK32C assessed as enzyme activity at 1 uM using myelin basic protein as substrate preincubated for 20 mins followed by [gamma-33P]-ATP addition and measured after 120 mins by radiometric Hot-SpotSM Kinase assay relative to control
[8] = target: Serine/threonine-protein kinase 16 (Homo sapiens) (UniProt O75716); test: Inhibition of human STK16 assessed as enzyme activity at 1 uM using myelin basic protein as substrate preincubated for 20 mins followed by [gamma-33P]-ATP addition and measured after 120 mins by radiometric Hot-SpotSM Kinase assay relative to control
[9] = target: T2, Serine/threonine-protein kinase BRSK2 (Homo sapiens) (UniProt Q8IWQ3); test: Inhibition of human BRSK2 assessed as enzyme activity at 1 uM using KKLNRTLSFAEPG as substrate preincubated for 20 mins followed by [gamma-33P]-ATP addition and measured after 120 mins by radiometric Hot-SpotSM Kinase assay relative to control
T2 sequence (whole entry): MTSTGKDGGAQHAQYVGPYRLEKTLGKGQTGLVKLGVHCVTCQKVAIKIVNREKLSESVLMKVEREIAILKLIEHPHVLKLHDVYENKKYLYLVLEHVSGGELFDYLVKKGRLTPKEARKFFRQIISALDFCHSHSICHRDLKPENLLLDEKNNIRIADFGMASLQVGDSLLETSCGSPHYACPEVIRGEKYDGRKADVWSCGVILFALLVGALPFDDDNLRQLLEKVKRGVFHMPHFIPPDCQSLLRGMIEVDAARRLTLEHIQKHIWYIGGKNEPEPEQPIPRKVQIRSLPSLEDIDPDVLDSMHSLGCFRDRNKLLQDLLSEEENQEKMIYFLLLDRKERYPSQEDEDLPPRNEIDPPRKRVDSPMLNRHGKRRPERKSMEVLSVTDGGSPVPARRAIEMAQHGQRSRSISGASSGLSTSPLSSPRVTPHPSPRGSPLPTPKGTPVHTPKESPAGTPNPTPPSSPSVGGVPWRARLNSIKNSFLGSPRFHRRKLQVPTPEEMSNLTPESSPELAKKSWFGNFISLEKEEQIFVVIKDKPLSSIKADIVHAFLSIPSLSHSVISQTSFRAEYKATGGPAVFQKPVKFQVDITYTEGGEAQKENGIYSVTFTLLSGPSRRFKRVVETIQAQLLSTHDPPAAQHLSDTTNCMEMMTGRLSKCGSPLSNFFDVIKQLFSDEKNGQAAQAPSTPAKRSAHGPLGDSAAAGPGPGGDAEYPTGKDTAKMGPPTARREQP

[10] = target: Calcium/calmodulin-dependent protein kinase type II subunit delta (Homo sapiens) (UniProt Q13557); test: Inhibition of human CAMK2d assessed as enzyme activity at 1 uM using KKLNRTLSFAEPG as substrate preincubated for 20 mins followed by [gamma-33P]-ATP addition and measured after 120 mins by radiometric Hot-SpotSM Kinase assay relative to control
[11] = target: MAP/microtubule affinity-regulating kinase 3 (Homo sapiens) (UniProt P27448); test: Inhibition of human MARK3 assessed as enzyme activity at 1 uM using KKKVSRSGLYRSPSMPENLNRPR as substrate preincubated for 20 mins followed by [gamma-33P]-ATP addition and measured after 120 mins by radiometric Hot-SpotSM Kinase assay relative to control
Chain of MAP/microtubule affinity-regulating kinase 3 (Homo sapiens) (P27448 whole entry, looked up): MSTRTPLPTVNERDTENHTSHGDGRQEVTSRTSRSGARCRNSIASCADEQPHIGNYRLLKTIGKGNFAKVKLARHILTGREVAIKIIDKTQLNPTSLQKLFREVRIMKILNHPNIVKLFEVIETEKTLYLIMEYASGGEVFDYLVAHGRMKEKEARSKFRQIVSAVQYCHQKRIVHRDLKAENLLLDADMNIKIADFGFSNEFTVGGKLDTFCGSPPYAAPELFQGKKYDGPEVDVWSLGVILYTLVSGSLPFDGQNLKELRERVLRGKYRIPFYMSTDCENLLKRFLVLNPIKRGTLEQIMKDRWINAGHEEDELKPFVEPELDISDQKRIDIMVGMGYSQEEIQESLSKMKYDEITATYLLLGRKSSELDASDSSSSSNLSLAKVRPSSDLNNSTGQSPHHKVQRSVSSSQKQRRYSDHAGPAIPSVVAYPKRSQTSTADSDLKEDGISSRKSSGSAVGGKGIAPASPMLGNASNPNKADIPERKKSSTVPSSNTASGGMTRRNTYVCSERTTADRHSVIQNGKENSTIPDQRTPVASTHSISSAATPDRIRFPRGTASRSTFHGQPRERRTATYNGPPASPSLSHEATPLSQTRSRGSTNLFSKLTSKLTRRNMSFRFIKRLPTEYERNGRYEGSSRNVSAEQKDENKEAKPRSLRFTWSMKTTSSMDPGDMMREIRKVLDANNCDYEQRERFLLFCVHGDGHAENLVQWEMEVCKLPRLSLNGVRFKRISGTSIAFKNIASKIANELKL

Chain of Calcium/calmodulin-dependent protein kinase type II subunit delta (Homo sapiens) (Q13557 whole entry): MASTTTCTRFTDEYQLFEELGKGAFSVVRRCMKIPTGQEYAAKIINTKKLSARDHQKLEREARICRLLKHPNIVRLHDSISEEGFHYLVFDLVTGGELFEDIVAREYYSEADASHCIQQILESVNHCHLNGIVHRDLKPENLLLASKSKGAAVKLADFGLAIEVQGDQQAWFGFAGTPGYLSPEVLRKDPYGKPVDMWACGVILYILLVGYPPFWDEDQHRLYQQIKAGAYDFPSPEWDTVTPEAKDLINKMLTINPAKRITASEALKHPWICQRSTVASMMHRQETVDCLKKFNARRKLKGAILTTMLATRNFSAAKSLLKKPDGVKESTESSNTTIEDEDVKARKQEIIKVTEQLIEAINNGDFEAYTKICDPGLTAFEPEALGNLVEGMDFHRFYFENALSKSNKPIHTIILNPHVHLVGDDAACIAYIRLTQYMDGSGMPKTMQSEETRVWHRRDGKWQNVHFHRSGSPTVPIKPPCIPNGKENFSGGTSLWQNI
Chain of Tau-tubulin kinase 2 (Homo sapiens) (Q6IQ55 whole entry): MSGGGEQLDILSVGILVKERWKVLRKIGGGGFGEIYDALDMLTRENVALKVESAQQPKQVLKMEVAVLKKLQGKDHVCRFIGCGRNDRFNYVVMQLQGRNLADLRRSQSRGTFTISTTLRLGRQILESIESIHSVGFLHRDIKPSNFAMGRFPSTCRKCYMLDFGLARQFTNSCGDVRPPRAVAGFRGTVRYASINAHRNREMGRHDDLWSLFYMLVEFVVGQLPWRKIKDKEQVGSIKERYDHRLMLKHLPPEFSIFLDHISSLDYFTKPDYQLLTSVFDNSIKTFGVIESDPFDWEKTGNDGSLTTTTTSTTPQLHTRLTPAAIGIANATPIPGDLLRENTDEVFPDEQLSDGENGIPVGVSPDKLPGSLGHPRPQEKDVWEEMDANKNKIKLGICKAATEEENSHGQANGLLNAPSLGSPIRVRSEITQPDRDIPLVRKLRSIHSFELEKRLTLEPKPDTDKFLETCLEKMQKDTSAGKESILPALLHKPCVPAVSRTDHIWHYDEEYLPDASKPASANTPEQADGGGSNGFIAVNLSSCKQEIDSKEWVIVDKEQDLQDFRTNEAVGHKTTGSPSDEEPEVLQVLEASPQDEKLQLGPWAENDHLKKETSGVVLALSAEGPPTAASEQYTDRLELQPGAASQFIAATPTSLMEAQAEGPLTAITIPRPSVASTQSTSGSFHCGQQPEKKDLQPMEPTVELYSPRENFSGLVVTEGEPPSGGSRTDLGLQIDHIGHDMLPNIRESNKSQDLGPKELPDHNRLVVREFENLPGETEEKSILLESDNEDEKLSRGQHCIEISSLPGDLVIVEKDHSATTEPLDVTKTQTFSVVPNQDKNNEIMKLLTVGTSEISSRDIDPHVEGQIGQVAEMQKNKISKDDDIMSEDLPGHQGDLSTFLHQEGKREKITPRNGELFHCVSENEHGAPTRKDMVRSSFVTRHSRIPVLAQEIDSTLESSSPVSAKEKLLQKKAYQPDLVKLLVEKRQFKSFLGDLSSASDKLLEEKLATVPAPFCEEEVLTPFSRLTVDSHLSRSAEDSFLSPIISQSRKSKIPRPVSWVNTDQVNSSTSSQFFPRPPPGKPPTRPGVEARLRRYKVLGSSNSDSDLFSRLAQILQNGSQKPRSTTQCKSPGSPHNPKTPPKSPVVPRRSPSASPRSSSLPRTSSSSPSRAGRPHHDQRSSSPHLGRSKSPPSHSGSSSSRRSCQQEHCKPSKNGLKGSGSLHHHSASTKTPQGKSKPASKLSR
Chain of Cyclin-dependent kinase 1/cyclin B1 (Homo sapiens) (P06493 whole entry, looked up): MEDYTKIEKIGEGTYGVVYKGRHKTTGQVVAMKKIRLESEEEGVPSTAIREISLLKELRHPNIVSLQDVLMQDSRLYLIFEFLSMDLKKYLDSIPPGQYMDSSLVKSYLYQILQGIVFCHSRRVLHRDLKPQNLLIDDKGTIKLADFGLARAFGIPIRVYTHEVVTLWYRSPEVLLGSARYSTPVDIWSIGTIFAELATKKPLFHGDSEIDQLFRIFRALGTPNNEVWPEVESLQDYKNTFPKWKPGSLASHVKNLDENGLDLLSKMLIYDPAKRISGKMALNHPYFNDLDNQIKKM
Chain of Cyclin-dependent kinase 1/cyclin B1 (Homo sapiens) (P14635 whole entry, looked up): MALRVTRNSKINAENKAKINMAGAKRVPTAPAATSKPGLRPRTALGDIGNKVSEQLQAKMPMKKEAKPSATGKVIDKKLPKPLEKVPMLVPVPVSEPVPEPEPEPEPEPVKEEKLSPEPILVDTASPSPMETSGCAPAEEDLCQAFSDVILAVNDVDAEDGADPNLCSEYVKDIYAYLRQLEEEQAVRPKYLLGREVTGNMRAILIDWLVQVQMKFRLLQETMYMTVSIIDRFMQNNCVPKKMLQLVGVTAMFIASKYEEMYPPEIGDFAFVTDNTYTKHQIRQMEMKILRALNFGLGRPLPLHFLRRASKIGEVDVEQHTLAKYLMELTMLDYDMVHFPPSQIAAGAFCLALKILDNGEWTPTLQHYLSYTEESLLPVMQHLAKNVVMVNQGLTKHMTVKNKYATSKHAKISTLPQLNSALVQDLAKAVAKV
Chain of Serine/threonine-protein kinase 32C (Homo sapiens) (Q86UX6 whole entry): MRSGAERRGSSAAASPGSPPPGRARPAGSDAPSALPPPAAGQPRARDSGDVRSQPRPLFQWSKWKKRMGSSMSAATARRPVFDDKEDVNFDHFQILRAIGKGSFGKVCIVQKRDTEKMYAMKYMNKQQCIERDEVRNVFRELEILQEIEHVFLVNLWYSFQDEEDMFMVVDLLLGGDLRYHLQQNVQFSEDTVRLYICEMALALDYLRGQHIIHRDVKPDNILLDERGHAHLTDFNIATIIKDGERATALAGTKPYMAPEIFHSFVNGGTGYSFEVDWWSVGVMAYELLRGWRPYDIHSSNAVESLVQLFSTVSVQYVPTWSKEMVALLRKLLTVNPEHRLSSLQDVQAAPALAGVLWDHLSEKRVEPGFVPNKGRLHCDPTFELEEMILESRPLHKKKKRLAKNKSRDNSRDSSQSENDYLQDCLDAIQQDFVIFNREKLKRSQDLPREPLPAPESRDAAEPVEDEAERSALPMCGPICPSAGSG
Chain of CDK3/Cyclin E (Homo sapiens) (P24864 whole entry, looked up): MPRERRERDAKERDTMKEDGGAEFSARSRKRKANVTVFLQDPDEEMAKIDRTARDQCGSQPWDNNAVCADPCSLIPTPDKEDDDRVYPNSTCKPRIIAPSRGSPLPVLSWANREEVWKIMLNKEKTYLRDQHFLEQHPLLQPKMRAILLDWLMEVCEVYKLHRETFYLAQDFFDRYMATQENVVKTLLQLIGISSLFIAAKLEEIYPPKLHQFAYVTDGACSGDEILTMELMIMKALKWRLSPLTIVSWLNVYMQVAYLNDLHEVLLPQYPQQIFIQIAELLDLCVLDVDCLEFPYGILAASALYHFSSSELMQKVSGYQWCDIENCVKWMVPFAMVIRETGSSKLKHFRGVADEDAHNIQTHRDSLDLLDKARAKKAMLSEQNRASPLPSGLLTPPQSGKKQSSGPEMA
Chain of CDK3/Cyclin E (Homo sapiens) (Q00526 whole entry, looked up): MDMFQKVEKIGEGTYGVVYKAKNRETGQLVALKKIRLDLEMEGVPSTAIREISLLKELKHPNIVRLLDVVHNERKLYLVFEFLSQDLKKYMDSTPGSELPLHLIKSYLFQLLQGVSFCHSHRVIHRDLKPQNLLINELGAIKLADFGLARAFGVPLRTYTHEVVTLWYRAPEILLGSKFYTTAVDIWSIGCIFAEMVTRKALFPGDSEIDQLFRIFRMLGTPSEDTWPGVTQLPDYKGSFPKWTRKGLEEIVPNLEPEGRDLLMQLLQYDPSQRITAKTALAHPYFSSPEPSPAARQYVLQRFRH
Chain of G protein-coupled receptor kinase 4 (Homo sapiens) (P32298 whole entry, looked up): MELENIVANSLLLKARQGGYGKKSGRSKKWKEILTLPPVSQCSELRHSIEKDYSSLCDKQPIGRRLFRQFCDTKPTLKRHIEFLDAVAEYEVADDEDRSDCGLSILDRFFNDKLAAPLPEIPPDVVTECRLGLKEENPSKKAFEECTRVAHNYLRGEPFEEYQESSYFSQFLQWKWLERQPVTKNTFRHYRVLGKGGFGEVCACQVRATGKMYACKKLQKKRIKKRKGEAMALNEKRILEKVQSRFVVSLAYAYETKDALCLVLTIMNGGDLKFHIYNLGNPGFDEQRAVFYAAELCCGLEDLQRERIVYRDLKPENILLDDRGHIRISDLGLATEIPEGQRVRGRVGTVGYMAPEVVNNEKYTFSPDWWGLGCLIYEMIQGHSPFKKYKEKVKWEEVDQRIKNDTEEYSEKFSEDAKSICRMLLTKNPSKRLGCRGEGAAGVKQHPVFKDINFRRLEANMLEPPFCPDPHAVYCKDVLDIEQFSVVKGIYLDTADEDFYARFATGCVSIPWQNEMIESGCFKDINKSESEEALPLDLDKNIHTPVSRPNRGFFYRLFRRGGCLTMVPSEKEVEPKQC

Structure (SMILES) | Activity [1] | Activity [2] | Activity [3] | Activity [4] | Activity [5] | Activity [6] | Activity [7] | Activity [8] | Activity [9] | Activity [10] | Activity [11]
CC[C@H](Nc1ncnc2[nH]cnc12)c1nc2cccc(F)c2c(=O)n1-c1ccccc1 | 86.8% | 93.2% | 98.3% | 90.8% | 90.6% | 102% | 105% | 105% | 98.9% | 107% | 130%
CC(C)Oc1ccc(-c2nn([C@@H](C)c3oc4ccc(F)cc4c(=O)c3-c3cccc(F)c3)c3ncnc(N)c23)cc1F [UMBRALISIB] | 84.3% | 95.1% | 87% | 94.2% | 96.7% | 98.9% | 111% | 108% | 99.1% | 103% | 100%
C[C@H](Nc1ncnc2nc[nH]c12)c1cc2cccc(Cl)c2c(=O)n1-c1ccccc1 | 88% | 92.2% | 88.3% | 89.4% | 95.8% | 97% | 94.3% | 106% | 95.1% | 104% | 137%
